# Tests used:
# [1] = biological target: T1, Protein deacetylase HDAC6 (Homo sapiens, UniProt Q9UBN7); assay: Inhibition of recombinant human HDAC6
# T1 sequence (Q9UBN7 whole entry): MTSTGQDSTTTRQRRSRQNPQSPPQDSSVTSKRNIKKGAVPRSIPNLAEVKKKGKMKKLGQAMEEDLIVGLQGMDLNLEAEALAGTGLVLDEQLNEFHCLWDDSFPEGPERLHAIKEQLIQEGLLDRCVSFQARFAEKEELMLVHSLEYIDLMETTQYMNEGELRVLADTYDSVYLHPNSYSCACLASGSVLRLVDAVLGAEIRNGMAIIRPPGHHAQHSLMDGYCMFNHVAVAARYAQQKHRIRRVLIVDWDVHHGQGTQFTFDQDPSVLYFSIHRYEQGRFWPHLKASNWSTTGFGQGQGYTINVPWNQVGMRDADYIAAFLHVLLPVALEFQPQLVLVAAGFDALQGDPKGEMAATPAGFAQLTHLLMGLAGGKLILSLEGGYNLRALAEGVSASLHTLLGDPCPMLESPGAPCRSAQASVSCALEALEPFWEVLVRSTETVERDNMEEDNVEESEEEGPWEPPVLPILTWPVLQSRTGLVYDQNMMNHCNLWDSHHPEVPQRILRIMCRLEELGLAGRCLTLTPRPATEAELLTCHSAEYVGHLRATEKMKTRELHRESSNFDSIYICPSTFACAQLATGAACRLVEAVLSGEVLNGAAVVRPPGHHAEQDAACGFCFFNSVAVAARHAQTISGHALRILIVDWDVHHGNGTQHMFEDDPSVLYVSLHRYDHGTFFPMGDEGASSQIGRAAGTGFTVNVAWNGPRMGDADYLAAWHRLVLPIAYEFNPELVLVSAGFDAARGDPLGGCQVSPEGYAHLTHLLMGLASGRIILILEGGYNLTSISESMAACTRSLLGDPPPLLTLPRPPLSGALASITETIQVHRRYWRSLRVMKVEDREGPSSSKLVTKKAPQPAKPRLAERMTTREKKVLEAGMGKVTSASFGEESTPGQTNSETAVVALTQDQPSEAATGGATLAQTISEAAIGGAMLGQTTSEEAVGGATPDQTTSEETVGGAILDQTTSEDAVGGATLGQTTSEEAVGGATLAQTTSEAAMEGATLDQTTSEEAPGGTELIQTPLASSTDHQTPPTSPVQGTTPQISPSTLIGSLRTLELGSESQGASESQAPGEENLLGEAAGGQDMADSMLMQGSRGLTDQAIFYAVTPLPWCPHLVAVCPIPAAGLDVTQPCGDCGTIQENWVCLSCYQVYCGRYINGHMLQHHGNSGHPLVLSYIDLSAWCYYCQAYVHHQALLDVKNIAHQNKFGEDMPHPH
# Histone deacetylase = assay: Inhibition of HDAC in human HeLa nuclear extract; assay type: protein assay
# [2] = Retention time of the compound; assay type: physicochemical
# Histone deacetylase 1 = Histone deacetylase 1 (Homo sapiens, UniProt Q13547); assay: Inhibition of recombinant human HDAC1
# Sequence of Histone deacetylase 1 (Q13547 whole entry): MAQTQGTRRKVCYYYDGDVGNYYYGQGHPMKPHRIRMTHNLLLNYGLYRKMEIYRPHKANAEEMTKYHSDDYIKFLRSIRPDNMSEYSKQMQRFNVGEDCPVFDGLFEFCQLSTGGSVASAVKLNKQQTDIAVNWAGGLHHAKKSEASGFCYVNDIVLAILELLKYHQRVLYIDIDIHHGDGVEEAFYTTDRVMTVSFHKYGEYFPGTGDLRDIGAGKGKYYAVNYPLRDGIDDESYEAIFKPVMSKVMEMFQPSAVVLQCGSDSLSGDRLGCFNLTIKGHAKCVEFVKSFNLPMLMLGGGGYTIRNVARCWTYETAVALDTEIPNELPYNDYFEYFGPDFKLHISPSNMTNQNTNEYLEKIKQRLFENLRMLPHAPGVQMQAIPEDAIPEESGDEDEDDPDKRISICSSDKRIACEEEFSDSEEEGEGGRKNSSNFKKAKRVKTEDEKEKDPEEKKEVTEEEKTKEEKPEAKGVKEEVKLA
Structure (SMILES),IC50 [1] [µM],IC50 (Histone deacetylase) [µM],Retention_time [2] [min],IC50 (Histone deacetylase 1) [µM]
O=C(CCS)NCCNC(=O)c1cc(-c2ccc(F)cc2)[nH]n1,> 10,> 10,2.74,> 10
O=C(O)CCn1nc(-c2ccc(F)cc2)cc1C(=O)NCCCCCCS,0.21,0.3,2.99,0.65
Cc1c(-c2ccc(F)cc2)n[nH]c1C(=O)NCCCCCCS,4.4,> 10,4.08,> 10
O=C(NCCCCCCS)c1cc(-c2ccc(F)cc2)nn1CCO,0.91,0.69,2.86,0.33
O=C(NCCCCCCS)c1cc(-c2ccc(F)cc2)nn1CCCO,0.47,1.2,3.81,1.3
CCC(C)n1nc(-c2ccc(F)cc2)cc1C(=O)NCCCCCCS (centres undefined),> 10,> 10,8.4,> 10
O=C(NCCCCCCS)c1cc(-c2ccc(F)cc2)nn1CCCCO,0.14,0.17,3.66,0.25
C/C=C1\NC(=O)[C@H]2CSSCC/C=C/[C@H](CC(=O)N[C@H](C(C)C)C(=O)N2)OC(=O)[C@H](C(C)C)NC1=O [ROMIDEPSIN],,,,0.14
O=C(O)Cn1nc(-c2ccc(F)cc2)cc1C(=O)NCCCCCCS,0.04,0.16,3.77,0.22
O=C(CCS)NCCCCNC(=O)c1cc(-c2ccc(F)cc2)[nH]n1,> 10,> 10,2.54,> 10
O=C(NCCCCCCS)c1cc(-c2ccc(F)cc2)n[nH]1,0.76,0.69,3.37,0.58
CC(C)n1nc(C(=O)NCCCCCCS)cc1-c1ccc(F)cc1,> 10,> 10,4.93,> 10
O=C(NCCCCCCS)c1cc(-c2ccc(F)cc2)n(CCCO)n1,0.85,3.1,3.19,3.6

# Other lines, results leading:
IC50 [1] [µM],IC50 (Histone deacetylase) [µM],Retention_time [2] [min],IC50 (Histone deacetylase 1) [µM],Structure (SMILES)
> 10,> 10,5.87,> 10,CCC(C)n1nc(C(=O)NCCCCCCS)cc1-c1ccc(F)cc1 (centres undefined)
0.25,0.66,7.77,1.9,O=C(O)Cn1nc(C(=O)NCCCCCCS)cc1-c1ccc(F)cc1
4.9,> 10,4.24,> 10,O=C(NCCCCS)c1cc(-c2ccc(F)cc2)on1
1.3,3,5,2.1,O=C(NCCCCCS)c1cc(-c2ccc(F)cc2)on1
5,> 10,3.71,> 10,Cc1c(-c2ccc(F)cc2)nn(CCCO)c1C(=O)NCCCCCCS
5,> 10,5.79,> 10,CCn1nc(-c2ccc(F)cc2)cc1C(=O)NCCCCCCS
5.8,> 10,3.37,> 10,O=C(NCCCS)c1cc(-c2ccc(F)cc2)on1
1.8,2.2,2.85,2.3,O=C(CS)NCCNC(=O)c1cc(-c2ccc(F)cc2)[nH]n1
0.33,0.4,2.88,2.7,O=C(O)CCn1nc(C(=O)NCCCCCCS)cc1-c1ccc(F)cc1
> 10,> 10,4.77,> 10,Cc1c(-c2ccc(F)cc2)nn(C)c1C(=O)NCCCCCCS

# — ChEMBL document CHEMBL3758139, “Novel thiol-based histone deacetylase inhibitors bearing 3-phenyl-1H-pyrazole-5-carboxamide scaffold as surface recognition motif: Design, synthesis and SAR study” (Bioorg Med Chem Lett, 2016)
